This is an account of results in US20100093076A1, “SOLUBLE IL-27 RECEPTOR” (priority 2006, published 2010).

pIC50: −log10 of the molar value.

The subject of one test is P815 cells. As to the kind of experiment: CTL-specific lysis assay with splenocytes of GVHD mice. It counts as cell-based, mouse. Conditions: splenocytes of treated GVHD mice against calcein-labeled P815 cells; versus PBS group. As for the experimental part:
Efficacy of IL-27 antagonists was assayed in a mouse model of acute graft-vs-host disease (Durie et al., J. Clin. Invest. 94:1333-1338, 1994). Parental mice (C57BL/6; n=12) were euthanized, and their spleens were collected. The pooled spleens were smashed using two glass slides to dissociate splenic cells. Lysis buffer was added to the splenocyte suspension to remove red blood cells. The cells were washed in RPMI 1640 (10% FBS) medium and resuspended in an appropriate amount of PBS to make a cell concentration of 300 million cells/ml. Protein treatments were administered by intraperitoneal injection every other day beginning on day-1 and continuing until day 15. Dexamethasone (DEX) was administered by injection daily on days 0 through 6. […] Mice were monitored 3 times a week for changes in body weight and any signs of moribundity. […] Spleens were collected, and a CTL-specific lysis assay using P815 cells was performed as a quantitative measurement of acute GVHD. […]
For CTL assay, P815 cells (a tumor cell line from mice with the same MHC class as DBA2) were labeled with calcein, then splenocytes from each experimental animal were added to the calcein-labeled P815 cells at effector (splenocytes):target (P815) ratios of 100:1, 33:1, and 10:1. Four hours after incubation at 37° C., supernatants were collected and fluorescence was measured (485 nm/535 nm).

Another test deals with T1, muIL-27 (Mus musculus, UniProt O35228+Q8K3I6).
T1 construct: purchased R&D Systems
T1 sequence (Q8K3I6 29-234): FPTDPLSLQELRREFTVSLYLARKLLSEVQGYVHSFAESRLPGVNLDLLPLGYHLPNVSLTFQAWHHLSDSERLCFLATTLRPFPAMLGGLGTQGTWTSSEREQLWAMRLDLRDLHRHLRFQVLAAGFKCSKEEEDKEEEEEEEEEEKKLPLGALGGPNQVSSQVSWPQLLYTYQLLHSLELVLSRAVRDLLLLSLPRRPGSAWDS
T1 sequence (O35228 19-228): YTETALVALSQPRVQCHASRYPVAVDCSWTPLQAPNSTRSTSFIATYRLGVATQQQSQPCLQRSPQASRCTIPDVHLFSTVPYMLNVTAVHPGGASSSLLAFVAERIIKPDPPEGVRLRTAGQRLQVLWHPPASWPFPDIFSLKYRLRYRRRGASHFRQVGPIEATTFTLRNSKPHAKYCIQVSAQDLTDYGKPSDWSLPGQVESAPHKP
The test can be described thus: Phospho-STAT3 (BIO-PLEX) neutralization of IL-27 by soluble receptors, mouse spleens. It counts as cell-based. The conditions noted are these: ligand muIL-27 at EC90 (0.2 nM). An excerpt: Whole mouse spleens were harvested from C57 B1/6 mice and washed two times with 1×PBS before being plated out at 2×10^5 cells/well in assay media (RPMI 1640 plus 10% fetal bovine serum) in 96-well, round-bottom tissue culture plates. Total human PBMC (peripheral blood mononuclear cells) were thawed from a frozen vial collected from a leukapherisis donation and washed two times with 1×PBS before being plated out at 10^6 cells/well in assay media in 96-well, round-bottom tissue culture plates. […] Following pre-incubation, treatments were added to the plates containing the cells and incubated together at 37° C. for 15 minutes.
Following incubation, cells were washed with ice-cold wash buffer (BIO-PLEX Cell Lysis Kit, BIO-RAD Laboratories, Hercules, Calif.) and put on ice to stop the reaction according to manufacturer's instructions. […]
Capture beads (BIO-PLEX Phospho-Stat3 Assay, BIO-RAD Laboratories) were combined with 50 μL of 1:1 diluted lysates and added to a 96-well filter plate according to manufacture's instructions (BIO-PLEX Phosphoprotein Detection Kit, BIO-RAD Laboratories). […] After the final wash, beads were resuspended in 125 μL/well of bead suspension buffer, shaken for 30 seconds, and read on an array reader (BIO-PLEX, BIO-RAD Laboratories) according to the manufacture's instructions. Data were analyzed using analytical software (BIO-PLEX MANAGER 3.0, BIO-RAD Laboratories). […]

Test [1] concerns acute graft-vs-host disease. The test can be described thus: Mouse model of acute graft-vs-host disease. It counts as in vivo. The conditions noted are these: acute GVHD. As for the experimental part: Efficacy of IL-27 antagonists was assayed in a mouse model of acute graft-vs-host disease (Durie et al., J. Clin. Invest. 94:1333-1338, 1994). Parental mice (C57BL/6; n=12) were euthanized, and their spleens were collected. The pooled spleens were smashed using two glass slides to dissociate splenic cells. Lysis buffer was added to the splenocyte suspension to remove red blood cells. The cells were washed in RPMI 1640 (10% FBS) medium and resuspended in an appropriate amount of PBS to make a cell concentration of 300 million cells/ml. Protein treatments were administered by intraperitoneal injection every other day beginning on day-1 and continuing until day 15. Dexamethasone (DEX) was administered by injection daily on days 0 through 6. On day 0, 75 million donor splenic lymphocytes from B6 mice (250.micro.1 per injection) were injected intravenously into recipient mice (C57BL/6×DBA/2 F1 (BDF1); n=10 per group) mice. Mice were monitored 3 times a week for changes in body weight and any signs of moribundity. Mice that lost >20% of their initial body weight were euthanized. Otherwise, mice were sacrificed 18 days after the cell transfer. Spleens were collected, and a CTL-specific lysis assay using P815 cells was performed as a quantitative measurement of acute GVHD. Furthermore, spleens were stained for T- and B-cell markers, including MHC class I markers (H2^b and H2^d) to look at donor/recipient cell ratio (acute GVHD spleen cells are mostly donor cells). Sera were collected to measure serum level of IgG1, IgG2a, and IgE by ELISA, and cytokine and chemokine levels using a commercially available kit (Luminex Corporation, Austin, Tex.).

In general, pIC50 refers to the negative decadic logarithm of the IC50, by convention in mol/L. As to “human IL-27RA-Fc5: Extracellular domain of human IL27RA (amino acids 1 to 512 of SEQ ID NO:3) fused to Fc5, effector minus human gamma1 Fc; SEQ ID NO:16”, in the test on P815 cells, the CTL activity entry is recorded as “reduced CTL activity compared to the PBS group”. In the test with muIL-27, the negative logarithm of the IC50 (pIC50) was 9.85. Also, in test [1], the colon length shortening result is recorded as “did prevent colon length shortening” and the splenomegaly result is reported as “did not prevent splenomegaly”. Further, the “host spleen cells, CD4+T cells, and Treg cells” value in test [1] (BDF1 recipients, day 18) is “maintained host spleen cells, CD4+T cells, and Treg cells”. Besides, in test [1] (versus PBS control group), the Body weight loss result was “not severe and was significantly less than in the PBS control group”. For the same substance, in test [1] (serum, arrows, key not given), the IL-2 level entry is “↑↑↑”, the IL-5 level result is “↑↑”, the IL-6 level result is on record as “↓↓↓” and the IgE level entry is “↑”. Besides, in test [1] (serum, arrows, key not given), the IgG1 level entry is “↑↑” and the IgG2A level result is given as “↑↑”.
